From US8722649B2, “Alpha-chloro and alpha-bromo phosphonate analogs of lysophosphatidic acid and methods of making and using thereof” (University of Utah Research Foundation, priority 2007, dated 2014)

System: MDA-MB-231 cells
Assay: Orthotopic breast cancer xenograft
Assay type: in vivo, nude mice
Experimental: Orthotopic Human Breast Cancer Models. 4-week-old female athymic nude mice (Charles River Laboratories) were anesthetized by intraperitoneal injection of ketamine (80 mg/kg) and xylazine (10 mg/kg),according to the protocol approved by the University of Utah Institutional Animal Care and Use Committee (IACUC). Then the thoracic skin was sterilized with iodine and alcohol swabs.
MDA-MB-231 were trypsinized and resuspended in 2.5% CMHA-S and 3% gelatin-DTPH (v:v=1:1). Then, one volume of 4% PEGDA solution was added to four volumes of the cell suspension, and the resulting suspension was mixed gently by vortexing. The final cell concentration was 5×10^7 cells/ml. When the cell suspension was becoming viscous (ca. 3-5 min at 20° C.), 200 uL of gel was injected subcutaneously into the fourth mammary fat pad of each mouse, using a total of six mice per group.
The assessment of chemotherapy on breast cancer. The mice were randomly divided into 4 groups, including control (physiological saline), paclitaxel, LPA antagonist (19b), and paclitaxel followed by 19b. Six mice for each cell line were necessary to get statistically significant results according to literature. The control group received physiological saline i.p. injection twice per week starting at two weeks after the cell transplantation and ending at two weeks after the treatment. The treatment groups received i.p. administration of paclitaxel (10 mg/kg/day) or 19b (10 mg/kg/day) twice per week with the same period of control group. One additional group included 2 dose of paclitaxel followed by 2 dose of 19b with the same period of control group. The treatment was received […] twice per week for 2 weeks total.
The body weight and tumor size were measured twice per week, and general clinical status of the animals was also assessed every day. Perpendicular tumor diameters were measured using a vernier scale caliper and tumor volume estimated using the formula for ellipsoid: […] (mm^3)=[width(mm)^2×length(mm)]/2. Data are expressed as median tumor areas with interquartile ranges.
Animals were euthanized at 4 weeks postinjection or once any signs of broken skin caused by the extension of tumor are found. Tumors were excised with surrounding tissues for histological evaluation. Analysis of variance was used to analyze the statistical difference on tumor growth between different groups. The results are in FIG. 8, where it is shown that the volume of the tumors is the lowest when mice were treated with paclitaxel followed by the administration of 19b.
Xenograft establishment and chemotherapy. […] The tumor sizes were measured and calculated by formula: tumor size (mm^3)=[width (mm)]^2×[length (mm)]/2. […]

## CC(=O)O[C@H]1C(=O)[C@@]2(C)[C@H]([C@H](OC(=O)c3ccccc3)[C@]3(O)C[C@H](OC(=O)[C@H](O)[C@@H](NC(=O)c4ccccc4)c4ccccc4)C(C)=C1C3(C)C)[C@]1(OC(C)=O)CO[C@@H]1C[C@@H]2O [Taxol, reference compound]
10 mg/kg i.p.
  tumor blood vessel density / angiogenesis (CD31), single agent: statistically different from the control
10 mg/kg i.p. twice per week for two weeks
  tumor size, single agent: reduction of tumor size
